Laboratory results from PubChem BioAssay (NCI).
Values joined by “and” are separate entries in the source; they are usually repeats but may differ in a detail not shown here. Identical values can stand only once.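 48-hour exposure; five concentrations; linearly interpolated endpoints. GI50 is the concentration that inhibits growth by half. Definition used: TGI = concentration required for complete inhibition of growth.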

Experiments:
Assay in all cases: NCI anticancer screen, dose series, 48 h
[1] = tested on: HOP-18 NSCLC
[2] = tested on: CAKI-1 renal
[3] = tested on: SF-295 CNS
[4] = tested on: TK-10 renal
[5] = tested on: HCT-116 colon
[6] = tested on: COLO 205 colon
[7] = tested on: DMS 114 small cell lung
[8] = tested on: HT29 colon
[9] = tested on: XF 498 CNS
[10] = tested on: DLD-1 colon
[11] = tested on: MDA-MB-435
[12] = tested on: MDA-N

## CC1(O)C=CC2CCC1C2O (stereo unspecified)
[1]
  TGI: > 100 µM
[2]
  TGI: > 100 µM
[3]
  TGI: > 100 µM
[4]
  TGI: > 100 µM
[5]
  TGI: 36.2 µM
[6]
  TGI: 75.7 µM
[7]
  TGI: 32.1 µM
[8]
  TGI: > 100 µM
[9]
  TGI: > 100 µM
[10]
  TGI: > 100 µM

## C/C(=N\NC(N)=O)C(CN1CCCCC1)C(c1ccccc1)c1c(O)c2ccccc2oc1=O (stereo unspecified)
[1]
  TGI: > 100 µM
[2]
  TGI: > 100 µM
[3]
  TGI: > 100 µM
[4]
  TGI: > 100 µM
[5]
  TGI: > 100 µM
[6]
  TGI: > 100 µM
[7]
  TGI: > 100 µM
[8]
  TGI: > 100 µM
[11]
  GI50: > 100 µM
  TGI: > 100 µM
[10]
  TGI: > 100 µM

## CCOC(=O)C(C)(C)Oc1ccc2c(=O)cc(-c3ccccc3)oc2c1
[1]
  TGI: 54.3 µM
[3]
  TGI: 75 µM
[4]
  TGI: > 100 µM
[5]
  TGI: 31.1 µM
[6]
  TGI: 36.8 µM
[7]
  TGI: 44 µM

## Cc1ccc2nc3c(C)c(Cl)c(=O)cc-3sc2c1
[1]
  TGI: 75.8 µM
[2]
  TGI: > 100 µM
[3]
  TGI: 81.3 µM
[4]
  TGI: > 100 µM
[5]
  TGI: 58 µM
[6]
  TGI: > 80.8 µM
[12]
  TGI: 32.1 µM
[7]
  TGI: 12.9 µM
[8]
  TGI: > 100 µM
[9]
  TGI: 32.5 µM
[11]
  TGI: 39.7 µM
[10]
  TGI: > 100 µM

## CN1CCn2c(Br)ccc2C1=O
[2]
  TGI: > 100 µM
[3]
  TGI: > 100 µM
[4]
  TGI: > 100 µM
[5]
  TGI: > 100 µM
[6]
  TGI: > 100 µM
[8]
  TGI: > 100 µM
[9]
  TGI: > 100 µM

## Cc1csc2c1C(=O)c1ccsc1C2=O
[1]
  TGI: 3.73 µM
[2]
  TGI: 34 µM
[3]
  TGI: 2.99 µM
[4]
  TGI: 35.2 µM
[5]
  TGI: 4.7 µM
[6]
  TGI: 24.8 µM
[12]
  TGI: 0.889 µM
[7]
  TGI: 3.1 µM
[8]
  TGI: 7.33 µM
[9]
  TGI: 5.06 µM
[11]
  TGI: 0.447 µM
[10]
  TGI: 10.6 µM

## CCOc1ccc2[nH]c3c(C)c4cc[n+](C)cc4c(C)c3c2c1
[1]
  TGI: 33.6 µM and 49.2 µM
[2]
  TGI: > 35.3 µM
[3]
  TGI: 0.672 µM and 1.55 µM
[4]
  GI50: 9.4 µM and 26.6 µM
  TGI: 81.6 µM and > 100 µM
[5]
  TGI: 18.5 µM and > 37.7 µM
[6]
  GI50: 0.791 µM and 1.6 µM
  TGI: 2.62 µM and 4.69 µM
[7]
  GI50: 0.48 µM and 1.24 µM
  TGI: 2.74 µM and 4.7 µM
[8]
  TGI: 28.4 µM and 32.7 µM
[10]
  TGI: > 100 µM

## COc1cc([C@@H]2c3cc4c(cc3[C@@H](NC(=O)c3ccc(N)cc3)C3COC(=O)[C@@H]32)OCO4)cc(OC)c1O (stereo partly specified)
[1]
  TGI: > 100 µM
[2]
  TGI: 89.4 µM
[3]
  TGI: 95.8 µM
[4]
  TGI: 29.7 µM
[5]
  TGI: 17 µM
[6]
  TGI: 28.4 µM
[7]
  TGI: 9.71 µM
[8]
  TGI: 19.4 µM
[10]
  TGI: 35.4 µM

## COc1cc(C2C3=C(CCC3=O)Oc3cc4c(cc32)OCO4)cc(OC)c1OC (stereo unspecified)
[1]
  TGI: > 100 µM
[2]
  TGI: 30.3 µM
[3]
  TGI: 0.532 µM
[4]
  TGI: 69.2 µM
[5]
  TGI: > 100 µM
[6]
  TGI: 1.81 µM
[7]
  TGI: 0.725 µM
[8]
  TGI: > 100 µM
[9]
  TGI: 0.736 µM

## O=c1[nH]c(=O)n(C2OC(COP(=O)(O)OP(=O)(O)O)C(O)C2O)cc1F (stereo unspecified)
[1]
  TGI: > 50 µM
[2]
  TGI: 34.8 µM
[3]
  TGI: > 50 µM
[4]
  TGI: > 50 µM
[5]
  TGI: > 17 µM
[6]
  TGI: > 50 µM
[7]
  TGI: > 50 µM
[8]
  TGI: > 50 µM
[9]
  TGI: > 50 µM
[10]
  TGI: > 50 µM

## COc1cccc(NC(=O)CSc2nnc(-c3ccc(N=Cc4ccc(Cl)cc4)cc3)o2)c1
[1]
  TGI: > 100 µM
[3]
  TGI: 43.5 µM
[4]
  TGI: 74.3 µM
[5]
  TGI: 36.3 µM
[6]
  TGI: 41.4 µM
[7]
  TGI: 46.9 µM
[8]
  TGI: 29.8 µM
[9]
  TGI: 37.7 µM

## NC(Cc1cc(I)c(O)c(I)c1)C(=O)O (stereo unspecified)
[1]
  TGI: > 500 µM
[2]
  TGI: 249 µM
[3]
  TGI: > 500 µM
[5]
  TGI: > 500 µM
[6]
  TGI: > 500 µM
[7]
  TGI: > 293 µM
[8]
  TGI: > 393 µM
[9]
  TGI: > 500 µM
[10]
  TGI: > 500 µM

## O=S1(=O)NNC(=NCc2ccc(Cl)cc2)c2ccccc21
[2]
  TGI: > 100 µM
[3]
  TGI: > 100 µM
[5]
  TGI: > 100 µM
[6]
  TGI: > 100 µM
[7]
  TGI: > 100 µM
[8]
  TGI: > 100 µM
[9]
  TGI: > 100 µM
[10]
  TGI: > 100 µM

## CC1=CC(O)C(O)C2(C)C1CC1OC(=O)C(O)C3C(C)C(O)C4(O)OCC13C42 (stereo unspecified)
[1]
  TGI: > 625 µM
[2]
  TGI: 205 µM
[3]
  TGI: 364 µM
[5]
  TGI: > 625 µM
[6]
  TGI: 79.7 µM
[7]
  TGI: 157 µM
[8]
  TGI: 159 µM
[9]
  TGI: 311 µM
[10]
  TGI: > 625 µM

## CS(=O)(=O)OCCN1CCC2(CC1)SSC1(CCN(CCOS(C)(=O)=O)CC1)S2
[2]
  TGI: 44.9 µM
[3]
  TGI: > 100 µM
[4]
  TGI: 55.8 µM
[5]
  TGI: > 100 µM
[6]
  TGI: > 100 µM
[12]
  TGI: > 100 µM
[8]
  TGI: > 100 µM
[11]
  TGI: > 100 µM

## CCOC(=O)c1ccc(C(=O)C(C(C)=O)C(=O)OC(C)(C)C)n1C (stereo unspecified)
[2]
  TGI: > 100 µM
[3]
  TGI: > 100 µM
[4]
  TGI: > 100 µM
[5]
  TGI: > 100 µM
[6]
  TGI: > 100 µM
[12]
  TGI: > 100 µM
[8]
  TGI: > 100 µM
[11]
  TGI: > 100 µM

## CCCCC[C@@H]1OCO[C@@]2(C)/C=C(C)/C=C/C(=O)O[C@H]([C@@H](C)[C@@H](O)[C@H](C)[C@@]3(O)C[C@@H](O[C@H]4C[C@@H](O)[C@H](O)[C@@H](C)O4)[C@H](C)[C@@H](C)O3)[C@@H](OC)/C=C/C=C(\C)C[C@@H]1[C@@H]2O (stereo in doubt)
[2]
  TGI: 2.69 µM
[3]
  TGI: 0.0563 µM
[4]
  TGI: 8.83 µM
[5]
  TGI: 0.609 µM
[6]
  TGI: 0.666 µM
[12]
  TGI: 0.203 µM
[8]
  TGI: 0.0544 µM
[11]
  TGI: 0.541 µM

## CCOC(=O)c1nc2c3c(ncn2n1)Oc1c(c(-c2ccccc2)nn1-c1ccccc1)C3c1ccc(Cl)cc1 (stereo unspecified)
[2]
  TGI: > 100 µM
[3]
  TGI: > 100 µM
[4]
  TGI: > 100 µM
[5]
  TGI: > 100 µM
[6]
  TGI: > 100 µM
[12]
  TGI: > 100 µM
[8]
  TGI: > 100 µM
[11]
  TGI: > 100 µM

## CC(C)(C)N=C1CC(C)(C)c2ccccc2C(=Nc2ccccc2)S1
[2]
  TGI: > 100 µM
[3]
  TGI: > 100 µM
[4]
  TGI: > 100 µM
[5]
  TGI: > 100 µM
[6]
  TGI: 49.6 µM
[7]
  TGI: 83.4 µM
[8]
  TGI: > 100 µM
[9]
  TGI: 45.5 µM
[10]
  TGI: > 100 µM

## COC(=O)c1sc(=S)sc1SCc1ccccc1CSc1sc(=S)sc1C(=O)OC
[2]
  TGI: > 100 µM
[3]
  TGI: > 100 µM
[4]
  TGI: > 100 µM
[5]
  TGI: > 100 µM
[6]
  TGI: > 100 µM
[12]
  TGI: > 100 µM
[8]
  TGI: > 100 µM
[11]
  TGI: > 100 µM

## COc1ccc(/C=C2\Cc3ccccc3C2=O)cc1OC
[2]
  TGI: > 100 µM
[3]
  TGI: > 100 µM
[4]
  TGI: > 100 µM
[6]
  TGI: > 100 µM
[7]
  TGI: > 100 µM
[8]
  TGI: > 100 µM
[9]
  TGI: > 100 µM
[10]
  TGI: > 100 µM

## C=CCC(CNC(=O)OCc1ccccc1)O[Si](C)(C)C(C)(C)C (stereo unspecified)
[2]
  TGI: > 100 µM
[3]
  TGI: > 100 µM
[4]
  TGI: > 100 µM
[5]
  TGI: 73.7 µM
[6]
  TGI: 30.8 µM
[12]
  TGI: > 100 µM
[8]
  TGI: 59.1 µM
[11]
  TGI: > 100 µM

## CCN(CC)CCO/N=C1\CC[C@H]2[C@@H]3CC=C4C[C@@H](O)CC[C@]4(C)[C@H]3CC[C@]12C
[2]
  TGI: 30 µM
[3]
  TGI: 38.6 µM
[4]
  TGI: 96.1 µM
[5]
  TGI: 30.2 µM
[6]
  TGI: 26.1 µM
[12]
  TGI: 58.1 µM
[8]
  TGI: 22.5 µM
[11]
  TGI: 31.9 µM

## CC(NC(=O)/C(=C/c1ccccc1O)NC(=O)c1ccccc1)C(=O)O (stereo unspecified)
[2]
  TGI: 37.2 µM
[3]
  TGI: 38.8 µM
[4]
  TGI: > 100 µM
[5]
  TGI: > 100 µM
[6]
  TGI: > 100 µM
[12]
  TGI: > 100 µM
[8]
  TGI: > 100 µM
[11]
  TGI: > 100 µM

## COC(=O)[C@H](C)N1C(=O)N[C@@H](C(C)C)C1=O
[2]
  TGI: > 100 µM
[3]
  TGI: > 100 µM
[4]
  TGI: > 100 µM
[5]
  TGI: > 100 µM
[6]
  TGI: > 100 µM
[12]
  TGI: > 100 µM
[8]
  TGI: > 100 µM
[11]
  TGI: > 100 µM
